# Reference: patent US20020076693A1, “Novel cell surface receptor for HIV retroviruses, therapeutic and diagnostic uses” (priority 1997, published 2002)
# pIC50: −log10 of the molar value.
# Key:
# HIV-1 Lai [1] = experiment: Inhibition of HIV-1 Lai infection of CEM cells (p24 production); assay type: cell-based
# Method: Infection of CEM cells with the HIV-1 Lai isolate was carried out as described previously (Callebaut et al., 1996). For the assay of the inhibitory effect of rabbit antisera or purified antibodies, CEM cells were first incubated (15-30 min, at room temperature) in the presence of different concentrations of each antibody preparation before infection using 0.2 synchronous dose of HIV-1 Lai as described before (Laurent-Crawford and Hovanessian, 1993). HIV production was estimated at different days post-infection (p.i.) by monitoring the HIV-1 major core protein p24 in the culture supernatant (Callebaut et al., 1996). The concentration of p24 was measured by p24 Core Profile ELISA (Du Pont). For a single cycle of HIV, AZT ([…]) was added at 8 hr post-infection to inhibit multiple cycles of virus infection; HIV production was monitored at 4 days post-infection (Laurent-Crawford and Hovanessian, 1993).
# HIV-1 Lai [2] = experiment: HIV entry into HeLa P4 / P4-C5 cells (β-galactosidase activity), HIV-1 Lai; assay type: cell-based
# VSV/HIV = assay type: cell-based
# HIV-1 Ada-M = experiment: Infection of PBMC by HIV-1 Ada-M (p24); assay type: cell-based; conditions: p24 at 6 days post-infection
# Source text: Virus production was monitored by the concentration of p24 in the culture medium at 6 days post-infection (3 +L0).
# CD4^+ CEM cells = experiment: Binding of 125I-labeled gp120 to CEM cells; design: species or system human
# Method: A. The binding of ^125I-labeled gp120 to CEM cells. […] The cells were then washed as described in “Materials and Methods” and processed for analysis of the bound gp120.
# Recombinant gp120 (Neosystem, Strasbourg, France) was radioiodinated with the Bolton-Hunter reagent (New England Nuclear-Du Pont, Boston, Mass.) according to the technique described by the manufacturer. To study the binding of gp120 to the CD4 receptor, CEM cells (5×10^6) which express high levels of CD4 were incubated in the culture medium with ^125I-labeled gp120 (50 ng; 10 Ci/mg) at 37° C. for 1 hour. Cells were then washed twice in PBS (5 ml) and cytoplasmic extracts were prepared by disruption of cell pellets in buffer E ([…]). Aliquots ([…]; corresponding to material from 10^6 cells) were diluted in two-fold concentrated electrophoresis buffer and were analyzed by SDS/PAGE. […] The ^125I-labeled gp120 band was also quantitated in a Phosphorimager (Molecular Dynamics, Sunnyvale, Calif.).
# HIV-1 Lai [3] = experiment: Binding of HIV particles to CEM cells (cell-associated p24); assay type: cell-based; conditions: 37° C., 1 hour; TASP 10 mM, mAb OKT4A 10 μg/ml, mAb anti-CD4 5 μg/ml, rabbit antibodies 100 μg/ml
# Method: B. The binding of HIV particles to CEM cells. […] The binding of HIV particles was estimated as described in “Materials and Methods”. The ordinate gives the concentration of p24 associated with the cells, i.e. particles bound on the cell surface as well as particles (or cores) entered into cells. Each value represents the mean of two identical samples. Similar results were obtained in two other indepenent experiments.
# CEM cells (5×10^6) were first preincubated (15 min, 37° C.) in the absence (Control) or presence of mAb anti-CD4 CB-T4 (5 μg/ml; histogram a-CD4), rabbit peptide purified antibodies against nucleolin, PHAP II and PHAP I at 100 μg/ml, or combination of antibodies as shown (at the same concentrations as when used alone) before the addition of HIV-1 Lai (material corresponding to 5 ng of p24), and further incubation at 37° C. for 1 hr. The cells were then washed and cell extracts were prepared to estimate the amount of HIV binding to cells (HIV bound on the surface+HIV entered into cells). The amount of virus particles was estimated by measuring the concentration of p24. The experimental conditions were as described previously (Krust et al., 1993; Callebaut et al., 1997b).
# After incubation at 37° C. for 1 hour with gentle shaking, cells were diluted 10 fold in the culture medium and pelleted by centrifugation. […]
# P40/PHAPII = P40/PHAPII (Homo sapiens, UniProt Q01105); experiment: Saturation of binding sites of P40/PHAPII
# P30/PHAPI = P30/PHAPI (Homo sapiens, UniProt P39687); experiment: Saturation of binding sites of P30/PHAPI
# [4] = system: HIV-1 AZT resistant, Saquinavir resistant, Nevirapine resistant; experiment: Entry of HIV-1 isolates resistant to antiviral drugs into HeLa cells (β-galactosidase); assay type: cell-based; conditions: heparin 5 mg/ml
# Method: HIV entry and replication, results in the activation of the HIV LTR, leading to the expression of the lacZ gene. Therefore, at 24 and 48 hours post-infection, the β-galactosidase activity could be measured in cell extracts directly. Consequently, this latter technique could be used to monitor HIV entry into cells. The HIV dose used corresponded to the amount of virus containing 20-40 ng/ml of p24.
# In these experiments, the background values of the β-galactosidase activity were assesed by the samples incubated with the a-CD4 mAb. Furthermore, the effect of heparin (5 mg/ml) was investigated.
# CD4 = CD4 (Homo sapiens, UniProt P01730); experiment: BIAcore biosensor binding to soluble CD4; conditions: binding protein soluble recombinant CD4, BIAcore
# Chain of P30/PHAPI (P39687 whole entry): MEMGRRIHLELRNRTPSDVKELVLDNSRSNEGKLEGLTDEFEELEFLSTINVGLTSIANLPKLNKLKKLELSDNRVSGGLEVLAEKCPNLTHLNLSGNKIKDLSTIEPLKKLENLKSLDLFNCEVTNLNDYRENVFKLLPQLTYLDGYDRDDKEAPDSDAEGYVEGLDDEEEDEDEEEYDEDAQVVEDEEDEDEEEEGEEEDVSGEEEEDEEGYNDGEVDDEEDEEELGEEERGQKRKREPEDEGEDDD
# Chain of P40/PHAPII (Q01105 1-277 isoform Q01105-2): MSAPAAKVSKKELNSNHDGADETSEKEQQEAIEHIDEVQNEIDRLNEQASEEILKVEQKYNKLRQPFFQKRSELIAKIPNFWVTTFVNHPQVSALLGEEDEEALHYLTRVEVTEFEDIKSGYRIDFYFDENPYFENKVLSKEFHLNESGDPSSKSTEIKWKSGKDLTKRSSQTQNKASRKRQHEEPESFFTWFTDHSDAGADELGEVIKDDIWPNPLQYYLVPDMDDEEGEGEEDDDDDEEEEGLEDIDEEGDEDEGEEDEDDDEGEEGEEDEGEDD
substance,measurement,setting,value
5[Kψ(CH2N)PR]-TASP,inhibition of virus production,HIV-1 Lai [1]; 5 mM added one hour before or together with the virus,more than 90%
same,inhibitory effect when added at 8 hours p.i.,HIV-1 Lai [1]; CEM cells,almost no effect
same,HIV entry monitored by intracellular concentration of p24,"HIV-1 Lai [1]; CEM cells, 1 hour incubation with virus, 5-10 μM",inhibited almost completely
same,combined action with AZT against an HIV infection,"HIV-1 Lai [1]; CEM cells, HIV-1 Lai, p24 at 4 days p.i.",synergistic action
same,pIC50,"HIV-1 Lai [1]; CEM cells, construct added 15 min before HIV-1, p24 at 4 days p.i., read-out: Inhibition of HIV infection (IC50), 50% dose",6.30
same,inhibition of HIV-1 Lai infection in CEM cells,"HIV-1 Lai [1]; TASP 5 μM, p24 at 5 days p.i.",more than 95%
same,inhibition of virus infection,"HIV-1 Lai [1]; TASP 10 μM, mAb OKT4A 10 mg/ml",complete inhibition
same,higher activity compared to non-reduced counterpart 5[KPR]-TASP,HIV-1 Lai [1]; both inhibition of HIV infection and affinity to bind the cell-surface ligand,≥ 10 fold
same,inhibition of viral entry monitored by β-galactosidase activity in HeLa/CD4^+ cells,HIV-1 Lai [2]; 5-10 μM,at least 90%
same,inhibition of HIV-1 LAI infection in HeLa cells,"HIV-1 Lai [2]; 37° C. in culture medium, 0.1-1 μM",more than 90%
same,effect on VSV-HIV pseudotyped virus entry and replication,VSV/HIV,had no effect
same,effect on HIV-1 Ada-M infection of PBMC,HIV-1 Ada-M,no effect
same,binding of 125I-labeled gp120 to CEM cells,CD4^+ CEM cells; 20 mM of TASP,not affected
same,binding of 125I-labeled gp120 to CEM cells,"CD4^+ CEM cells; higher concentrations of TASP (40, 80 μM)",slight inhibition
same,inhibition of binding of HIV particles to CEM cells,HIV-1 Lai [3],78%
same,concentration for 100% saturation of the binding sites,P40/PHAPII,4 µM
same,concentration for 100% saturation of the binding sites,P30/PHAPI,8 µM
same,effect on entry of drug-resistant HIV-1 isolates,[4],Inhibits Entry
same,ka (association rate constant),CD4; listed as 5(KΨ(CH2N)PR)TASP,nb^b
same,ka (association rate constant),CD4; listed as 5[KΨ(CH2N)PR]-TASP,No binding
